Measured values published in patent US10385065B2, “Antibacterial compounds” (priority 2014, dated 2019).
Values after ≈ are worked out from the molar mass of the structure shown. Read-outs that look alike come from different tables or passages of the source.

How the values were obtained:
[1] = test system: S. aureus (MRSA) ATCC 43300; assay: MIC, S. aureus ATCC 43300; format: cell-based; details: Staphylococcus aureus; Table 2; read-out: MIC S. aureus (MRSA) ATCC 43300 Heterogeneous MRSA strain
[2] = test system: S. aureus NRS106 (fluoroquinolone susceptible MSSA); assay: MIC, S. aureus NRS106; format: cell-based; details: Staphylococcus aureus
[3] = test system: S. aureus SACPX1-SP28 (MSSA - fluoroquinolone resistant); assay: MIC, S. aureus SACPX1-SP28; format: cell-based; details: Staphylococcus aureus, read-out: MIC S. aureus SACPX1-SP28
[4] = test system: S. aureus NRS127 MRSA LZD resistant; assay: MIC, S. aureus NRS127; format: cell-based; details: Staphylococcus aureus; Table 2
S. aureus NRS74 = assay: MIC, S. aureus NRS74; format: cell-based; details: Staphylococcus aureus, MRSA / NRS 74, read-out: MIC S. aureus NRS74
S. aureus NRS271 = assay: MIC, S. aureus NRS271; format: cell-based; details: Staphylococcus aureus, MRSA / NRS 271, read-out: MIC S. aureus NRS271
S. aureus NRS100 MRSA = assay: MIC, S. aureus NRS100; format: cell-based; details: Staphylococcus aureus; Table 2
[5] = test system: Escherichia coli ATCC 25922; assay: MIC, broth microdilution, E. coli ATCC 25922; format: cell-based; details: ATCC25922, Table 1, wild type strain
[6] = test system: S. aureus NRS107 MUP resistant; assay: MIC, S. aureus NRS107; format: cell-based; details: Staphylococcus aureus, Table 2
[7] = test system: Neisseria gonorrhoeae ATCC 49226; assay: MIC, N. gonorrhoeae ATCC 49226; format: cell-based; details: ATCC49226, Table 4, 24 h incubation
S. aureus VRS8 = assay: MIC, S. aureus VRS8; format: cell-based; details: Staphylococcus aureus, MRSA, read-out: MIC S. aureus VRS8
[8] = test system: Neisseria meningitidis ATCC 13090; assay: MIC, N. meningitidis ATCC 13090; format: cell-based; details: ATCC13090, Table 4, 24 h incubation
[9] = test system: human hepatic cell line (HepG2 ATCC HB-8065); assay: Human cell viability assay (CellTiter-Glo), HepG2; format: cell-based; details: read-out: IC50 values against HepG2
Method in brief: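 HepG2 seeded at 20,000 cells/well, then after 24 h given two-fold serial dilutions (1-128 μg/mL, 1% DMSO) in DMEM with 0.001% FBS and 0.3% albumin. After 24 h at 37 °C, ATP luminescence (CellTiter-Glo) read; IC50 is the concentration halving viability.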

[10] = test system: all strains of S. aureus tested; assay: Antibacterial susceptibility, all S. aureus strains tested; format: cell-based, Staphylococcus aureus; details: including strains resistant to fluoroquinolone and other antibiotics
[11] = test system: S. aureus NRS482 MRSA FQ resistant; assay: MIC, S. aureus NRS482; format: cell-based; details: Staphylococcus aureus; Table 2
[12] = test system: Mycobacterium smegmatis ATCC 19420; assay: MIC, M. smegmatis ATCC 19420; format: cell-based; details: Mycolicibacterium smegmatis, ATCC19420; Table 4, 72 h incubation
[13] = test system: Enterococcus faecium ATCC 19434; assay: MIC, E. faecium ATCC 19434; format: cell-based; details: ATCC19434, Table 2
S. aureus NRS1 MRSA = assay: MIC, S. aureus NRS1; format: cell-based; details: Staphylococcus aureus; Table 2; read-out: MIC S. aureus NRS1 MRSA AMG & TET resistant
[14] = test system: S. aureus SACPX1-SP25 MSSA - FQ resistant; assay: microbe, parasite or virus in culture; format: cell-based; details: Staphylococcus aureus, ATCC 29213 / MSSA, read-out: MIC S. aureus SACPX1-SP25 MSSA - FQ resistant (isogenic mutant of ATCC 29213)
S. aureus NRS70 MRSA = assay: MIC, S. aureus NRS70; format: cell-based; details: Staphylococcus aureus; Table 2
[15] = test system: S. aureus NRS384 (MRSA - fluoroquinolone susceptible); assay: MIC, S. aureus NRS384; format: cell-based; details: Staphylococcus aureus, read-out: MIC S. aureus NRS384
S. aureus NRS108 = assay: MIC, S. aureus NRS108; format: cell-based; details: Staphylococcus aureus, MRSA / NRS 108, read-out: MIC S. aureus NRS108
[16] = test system: S. aureus VRS1 MRSA VAN resistant; assay: MIC, S. aureus VRS1; format: cell-based; details: Staphylococcus aureus, Table 2
[17] = test system: Streptococcus pneumoniae ATCC BAA-255; assay: MIC, S. pneumoniae ATCC BAA-255; format: cell-based; details: ATCCBAA255, Table 2
[18] = test system: Haemophilus influenzae ATCC 49247; assay: MIC, H. influenzae ATCC 49247; format: cell-based; details: ATCC49247, Table 4
[19] = test system: Mycobacterium tuberculosis H37Rv; assay: MIC, M. tuberculosis H37Rv; format: cell-based; details: virulent tuberculosis-causative strain
[20] = test system: Moraxella catarrhalis ATCC 25240; assay: MIC, M. catarrhalis ATCC 25240; format: cell-based; details: ATCC25240, Table 4
[21] = test system: Staphylococcus aureus ATCC 29213; assay: MIC, broth microdilution, S. aureus ATCC 29213; format: cell-based
[22] = test system: S. epidermidis NRS101 MRSE; assay: MIC, S. epidermidis NRS101; format: cell-based; details: Staphylococcus epidermidis; Table 2; read-out: MIC S. epidermidis NRS101 MRSE AMG, ERY resistant
[23] = test system: Legionella pneumophila ATCC 33152; assay: microbe, parasite or virus in culture; format: cell-based; details: ATCC33152, 48 h, read-out: MIC Legionella pneumophila ATCC 33152
[24] = HepG2, 24 h incubation, tested over 1-128 μg/mL
[25] = ATCC 29213 / MSSA, Table 2, read-out: MIC S. aureus (MSSA) ATCC 29213 CLSI control strain

Row | SMILES | MIC [1] [µg/mL] | MIC [4] [µg/mL] | MIC (S. aureus NRS100 MRSA) [µg/mL] | MIC [6] [µg/mL] | IC50 [9, 24] [µg/mL] | MIC [11] [µg/mL] | MIC [13] [µg/mL] | MIC (S. aureus NRS1 MRSA) [µg/mL] | MIC ([14]; Table 2) [µg/mL] | MIC (S. aureus NRS70 MRSA) [µg/mL] | MIC [16] [µg/mL] | MIC [17] [µg/mL] | MIC [18] [µg/mL] | MIC [21, 25] [µg/mL] | MIC [22] [µg/mL] | other results
1 | Cc1c(-c2cc(F)c(N)cc2F)ccc2c3ocnc3c(=O)n(C3CC3)c12 [Compound 1, 7-(4-amino-2,5-difluoro-phenyl)-5-cyclopropyl-6-methyl-oxazolo[4,5-c]quinolin-4-one] | < 1 | < 1 | < 1 | < 1 | > 100 | < 1 | > 100 | < 1 | < 1 | < 1 | < 1 | 1 to 10 (≈ 2.72 to 27.2 µM) | < 1 | < 1 | < 1 | MIC [2]: < 1 µg/mL; MIC [3]: < 1 µg/mL; MIC (S. aureus NRS74): < 1 µg/mL; MIC (S. aureus NRS271): < 1 µg/mL; MIC [5]: > 100 µg/mL; MIC [7]: < 1 µg/mL; MIC (S. aureus VRS8): < 1 µg/mL; MIC [8]: < 1 µg/mL; activity against all strains of S. aureus tested [10]: excellent activity; MIC [12]: < 1 µg/mL; MIC [15]: < 1 µg/mL; MIC (S. aureus NRS108): < 1 µg/mL; MIC [19]: < 8 µg/mL; MIC [20]: < 1 µg/mL; MIC ([21]; ATCC29213, Table 1, wild type strain, read-out: MIC S. aureus ATCC 29213): < 1 µg/mL; MIC [23]: < 1 µg/mL
2 | CN[C@H](CC(C)C)C(=O)N[C@H]1C(=O)N[C@@H](CC(N)=O)C(=O)N[C@H]2C(=O)N[C@H]3C(=O)N[C@H](C(=O)N[C@H](C(=O)O)c4cc(O)cc(O)c4-c4cc3ccc4O)[C@H](O)c3ccc(c(Cl)c3)Oc3cc2cc(c3O[C@@H]2O[C@H](CO)[C@@H](O)[C@H](O)[C@H]2O[C@H]2C[C@](C)(N)[C@H](O)[C@H](C)O2)Oc2ccc(cc2Cl)[C@H]1O [Vancomycin, reference compound] | 1 to 10 (≈ 0.69 to 6.9 µM) | 1 to 10 (≈ 0.69 to 6.9 µM) | 1 to 10 (≈ 0.69 to 6.9 µM) | 1 to 10 (≈ 0.69 to 6.9 µM) | – | 1 to 10 (≈ 0.69 to 6.9 µM) | < 1 | 1 to 10 (≈ 0.69 to 6.9 µM) | < 1 | < 1 | 1 to 10 (≈ 0.69 to 6.9 µM) | < 1 | 10 to 100 (≈ 6.9 to 69 µM) | < 1 | 1 to 10 (≈ 0.69 to 6.9 µM) | IC50 ([9]; HepG2, 24 h): 10 to 100 µg/mL (≈ 6.9 to 69 µM)
3 | Cc1onc(-c2ccccc2)c1C(=O)N[C@@H]1C(=O)N2[C@@H]1SC(C)(C)[C@@H]2C(=O)O [Oxacillin, reference compound] | < 1 | < 1 | > 100 | < 1 | 10 to 100 (≈ 24.9 to 249 µM) | – | 10 to 100 (≈ 24.9 to 249 µM) | > 100 | – | 10 to 100 (≈ 24.9 to 249 µM) | < 1 | – | > 100 | < 1 | 1 to 10 (≈ 2.49 to 24.9 µM) | MIC [14]: 1 to 10 µg/mL (≈ 2.49 to 24.9 µM)
